Experiment: Pain relief and mobility in patients with musculoskeletal trauma, flavonoid/flavonol versus NSAID
Format: in vivo, human
Experimental: A preparation containing 2000 mg of quercitin and 20 mg OPC flavonols was given to one group of patients every 6 hours relief of pain. A second group of patients were given 650 mg of […]) every 4 hours.

[1] = Acute knee trauma patellar dislocation

For `Cc1ccc(-c2cc(C(F)(F)F)nn2-c2ccc(S(N)(=O)=O)cc2)cc1` [NSAID], which mobility [1] is on record?
Its mobility is “mobility = 10”.

And the pain dec [1]?
The pain dec was “pain dec = 5”.

And the mobility (Basketball "groin muscle pull")?
Its mobility is “mobility = 30”.

And the pain dec (Basketball "groin muscle pull")?
Its pain dec is “pain dec = 15”.

What about the mobility (Blunt injury to R. shoulder) of the same compound?
Its mobility is “mobility = 25”.

And the pain dec (Blunt injury to R. shoulder)?
Its pain dec is “pain dec = 20”.

Reference: US6620798B1, “Synergistic agents for enhancing tissue repair” (priority 2000, dated 2003)
